# In patent US9163032B2, “Esters of DCPLA and methods of treatment using the same” (Blanchette Rockefeller Neurosciences Institute, priority 2011, dated 2015):
# Several values for one entry are separate records, joined by “and”; a condition that tells them apart may be missing. Equal entries are not always repeated.
# Experiments:
# [1] = test system: cultured primary rat hippocampal neurons; assay: Neuroprotection against ASPD induced toxicity, MTT assay, primary neurons; type: cell-based; conditions: 50 nM ASPD, 20 hr, activator 0.27 nM
# Description: (§1) Viability of cells was measured by MTT assay. MTT (i.e., 3-(4,5-dimethylthiazol-2-yl)-2,5-diphenyltetrazolium bromide) is a tetrazolium salt that is cleaved to formazan by the succinate dehydrogenase, which is only active in viable cells. After solubilization of the formazan, the amount of dye can be quantified with a microplate reader at 570 nm along with a reference of 630 nm. For the MTT assay, 5×10^4 primary rat hippocampal neurons from 18-day-old embryonic Sprague-Dawley rat brains or SH-SY5Y cells were plated on each well of 24-well plates coated with poly-D-lysine. After treatment, the cells were washed with 1× PBS and were incubated with 200 μl of 1 mg/ml MTT solution (Sigma, USA) at 37° C. for 2 hr. Then the MTT-solution was removed and the cells were lysed with 200 μl isopropanol containing 0.04 M HCl and […] for 10 min. Finally, the reading was taken at 570 nm and 630 nm. All the samples were done in triplicate and the data were represented as the percentage of control.
# Bryostatin 1, DCPLA, and DCPLA-ME were tested against ASPD-induced cytotoxicity to determine their neuroprotective efficacy.
# [2] = test system: primary human cortical neurons; assay: 40 day culture of human primary cortical neurons: survival, synapses, branching; type: cell-based; conditions: 0.27 nM
# Description: To examine the effects of PKC-ε activation, cultured human cortical neurons in serum-free artificial medium were exposed to 100 nM DCPLA-ME added every three days, along with 50% medium replacement, for 40 days. More specifically, human primary cortical neurons were grown in Neuronal Medium (ScienCell Cat No#1521) containing neuronal growth supplement (NGS) (Sciencell Cat No#1562).
# Cells were plated on poly-l-lysine (0.001%) coated plates at a density of >10000 cells/cm2. Half of the media was replaced by new media every 3 days. DCPLA-ME was dissolved in 100% ethanol and added at 100 nM final concentration. Fresh DCPLA-ME (100 nM) was added every 3 days during media change. The experiments were continued for 40 days.
# Human primary neurons (ScienCell Research Laboratories, USA) were thawed and plated on poly-L-lysine coated plates at a density of 10,000 cells per cm^2 and were maintained in neuronal medium (DMEM+high glucose+neuronal growth supplement, ScienCell Research Laboratories, USA) following the recommended method. Primary human neurons were then treated with either DCPLA-ME (100 nM) or bryostatin 1 (0.27 nM) for 40 days. Fresh drug was added every third day with 50% media change.
# [3] = test system: Phosphatidylserine (C2) Binding Site; assay: 3H-DCPLA-ME binding to rat brain slices with C1 and C2 competitors (film-autoradiography); conditions: rat brain slices
# Description: To determine the binding site of DCPLA-ME, ^3H-DCPLA-ME was incubated with rat brain slices in the absence and presence of known C1 and C2 competitors. More specifically, rat brain sections were fixed with formaldehyde, sliced, and incubated with (1)^3H-DCPLA-ME alone; (2)^3H-DCPLA-ME with DCPLA; (3)^3H-DCPLA-ME with Phorbol ester; or (4)^3H-DCPLA-ME and Bryostatin 1. After incubation, the slices were washed with a buffer made of 130 mM NaCl, 5 mM MgCl, 5 mM KCl, 1 mM EGTA, and 0.1% bovine serum albumin in 10 mM HEPES-NaOH, pH 7.4, dried, and analyzed with film-autoradiography.
# PKC-ε = PKC-ε translocation to membrane in SH-SY5Y neuroblastoma cells (Western Blot); type: cell-based, human; conditions: 1 μM (20-fold higher than ASPD), relative to control
# Description: (§2) Cells were harvested in homogenizing buffer containing 10 mM Tris-Cl (pH 7.4), 1 mM PMSF (phenylmethylsulfonyl fluoride), 1 mM EGTA, 1 mM EDTA, 50 mM NaF, and 20 μM leupeptin, and were lysed by sonication. The homogenate was centrifuged at 100,000×g for 15 min at 4° C. to obtain the cytosolic fraction (supernatant) and membrane (pellet). The pellet was resuspended in the homogenizing buffer by sonication. For whole cell protein isolation from primary neurons, the homogenizing buffer contained 1% Triton X-100. Protein concentration was measured using the Coomassie Plus (Bradford) Protein Assay kit (Pierce, USA). Following quantification, 20 μg of protein from each sample was subjected to SDS-PAGE analysis in a 4-20% gradient Tris-Glycine gel (Invitrogen, USA). The separated protein was then transferred to a nitrocellulose membrane. The membrane was blocked with 5% BSA at room temperature for 15 min and was incubated with primary antibody overnight at 4° C. After the incubation, it was washed three times with TBS-T (Tris Buffered Saline-Tween 20) and further incubated with alkaline phosphatase conjugated secondary antibody (Jackson Immunoresearch Laboratories, USA) at 1:10000 dilution for 45 min. The membrane was finally washed three times with TBS-T and developed using the 1-step NBT-BCIP substrate (Pierce, USA). The blot was imaged in an ImageQuant RT-ECL (GE Life Sciences, Piscataway, N.J.) and densitometric quantification was performed using IMAL software (Blanchette Rockefeller Neurosciences Institute, Morgantown, W. Va.). For translocation assays, PKC activation was represented as the percentage of total protein in the membrane (membrane/cytosol+membrane).
# [4] = test system: rat primary hippocampal neurons; assay: Neurotoxic effect of Aβ1-42 oligomers, MTT viability assay; type: cell-based; conditions: 20 hr
# Description: Amylospheroids (ASPDs) and Aβ monomers were prepared following Hoshi, M., et al. (2003) Proc Natl Acad Sci USA 100, 6370-6375, and Noguchi, A., et al. (2009) J Biol Chem 284, 32895-32905. Briefly, Aβ1-42 was dissolved in 1,1,1,3,3,3-hexafluoro-2-propanol and incubated overnight at 4° C. and then 3 hr at 37° C. The dissolved Aβ1-42 was then lyophilized in 1.5 ml polypropylene centrifuge tubes at 40 nmol/tube concentration. For preparing the ASPDs, the lyophilized Aβ was dissolved in phosphate buffered saline (PBS) without Ca^2+ or Mg^2+ at less than 50 μM concentration and rotated for 14 hr at 4° C. After incubation, the Aβ solution was purified using a 100 kDa molecular mass cutoff filter (Amicon Ultra, Millipore) and the high-molecular weight fraction was saved to obtain the most toxic ASPDs. Aβ derived diffusible ligands (ADDLs) were produced as previously described. See Lambert, M. P et al., Proc. Natl. Acad. Sci. USA, 1998, 95: 6448-6453. Briefly, Aβ1-42 was solubilized at 5 mM in dimethyl sulfoxide, diluted to 100 μM in F12k medium and was incubated at 4° C. for 24 hr. The solution was centrifuged at 14000×g for 10 min at 4° C. and the supernatant was used as the ADDLs.
# as §1
# To assess the neurotoxic effect of different sized oligomers, rat primary hippocampal neurons were treated with variable concentrations of these Aβ1-42 species for 20 hr. Viability of the treated cells was compared to untreated cells using the MTT assay described above.
# synaptophysin = assay: Synaptophysin expression in primary hippocampal neurons (immunofluorescence, Western Blot); type: cell-based, rat; conditions: 1 μM, 20 hr
# Description: (§3) Cells were grown in two chambered slides (Nunc, USA) at low density. For immunofluorescence staining, the cells were washed with PBS (pH 7.4) and fixed with 4% paraformaldehyde for 4 min. Following fixation, the cells were blocked and permeabilized with 5% serum and 0.3% Triton X-100 in 1×PBS for 30 min. Cells were washed three times with 1×PBS and incubated with primary antibodies for 1 hr at 1:100 dilution. After the incubation, the slides were again washed three times in 1×PBS and were incubated with the FITC anti-mouse IgG and Rhodamine anti-rabbit IgG for 1 hr at 1:400 dilution. The cells were further washed and stained with DAPI (4′,6-diamidino-2′-phenylindole, dihydrochloride) (Thermo Scientific, USA) to stain the nucleus. Finally, the slides were washed and mounted in Pro Long Gold antifade mounting solution (Invitrogen, USA) and were viewed under a LSM 710 Meta confocal microscope (Zeiss) at 350 nm, 490 nm, and 540 nm excitation and 470 nm, 525 nm, and 625 nm emission for DAPI, FITC, and Rhodamine respectively. Six individual fields at 63× oil lens magnification were analyzed for the mean fluorescence intensity (MFI) in each channel.
# as §2
# (§4) To estimate the synaptic damage caused by the ASPDs on primary hippocampal neurons, the expression of synaptophysin (a presynaptic marker) and PSD-95 (a postsynaptic marker) was measured by immunofluorescence staining. […] Following a 20 hr incubation period, the cells were stained for nucleus, PSD-95, and synaptophysin. Expression levels were calculated as the change of percentage in mean fluorescence intensity compared to untreated cells.
# (§5) Primary neurons, treated and untreated, were immunostained for MAP-2, synaptophysin, and PSD-95 to determine the synaptic integrity. […] Following a 20 hr incubation period, the cells were stained for MAP-2, PSD-95, and synaptophysin as described above.
# PSD-95 = PSD-95 expression in primary hippocampal neurons (immunofluorescence); type: cell-based, rat; conditions: 1 μM, 20 hr
# Description: as §3, §4, §5
Molecule,viability of ASPD-treated primary neurons [1],co-localized staining of PSD-95 and synaptophysin in puncta ([2]; 30 day old neurons),Immunostaining of PSD-95 and synaptophysin from Western blots ([2]; 40 days),"3H-DCPLA-ME binding, 30 nM competitor ([3]; 30 nM competitor)","3H-DCPLA-ME binding, 1 μM competitor ([3]; 1 μM competitor)",PKC-ε membrane translocation (PKC-ε),Viability of primary neuron ([4]; 50 nM),Viability of primary neuron ([4]; 500 nM),Viability of primary neuron ([4]; 1000 nM (1 μM)),synaptophysin mean fluorescence intensity (synaptophysin),PSD-95 expression (PSD-95)
CCC/C=C/C=C/C(=O)O[C@H]1/C(=C/C(=O)OC)C[C@H]2C[C@H]([C@@H](C)O)OC(=O)C[C@H](O)C[C@@H]3C[C@H](OC(C)=O)C(C)(C)[C@](O)(C[C@@H]4C/C(=C/C(=O)OC)C[C@H](/C=C/C(C)(C)[C@]1(O)O2)O4)O3 [Bryostatin 1],73.23±3.6%,increased co-localized staining,significantly higher,100%,77%,–,–,–,–,–,–
"ADDL: Aβ derived diffusible ligands prepared from Aβ1-42, containing 6.5 monomers on average",–,–,–,–,–,80.82±4.025%,91.15 ± 1.44 % of control,79.01 ± 11.32 % of control,50.98±3.8 % of control and 49.02 ± 7.26 % of control,75.64±4.84 % of control,–
Aβ Monomer: monomeric Aβ1-42,–,–,–,–,–,did not affect translocation,–,–,–,did not change,did not change
